The text below walks through data of US8704037B2, “Targeted cell death” (priority 2007, dated 2014).

Molecules are shown by their SMILES.

For test [1], the system named is MBP+ cells (oligodendrocytes). The experiment in a line: Mixed cortical cultures infected with pLpMBP(iCP9)MG and exposed to CID. Format: cell-based, rat. As for the experimental part:
High density mixed cortical cultures were established after isolation of cerebral cortices from 3 Fischer rats as previously described. Cerebral cortices were removed and place in ice-cold Hanks' balanced salt solution, centrifuged and digested with trypsin at 37° for 10 minutes. Tissue was centrifuged and resuspended in minimal essential medium with Earle's salt (Invitrogen) containing heat-inactivated fetal bovine serum and horse serum. Cell suspension was passed through cell strainers and plated. After three hours the medium is changed to Neurobasal medium supplemented with B27 MinusAO (Invitrogen). Cultures were maintained for seven days and then immunohistochemical staining was performed to verify the composition of the cultures.
The mixed primary cortical cultures (consisting of all CNS cell types) were infected with pLpMBP(iCP9)MG and exposed to CID and then analyzed for cell death of oligodendrocytes (MBP+ cells). The MBP promoter was designed to induce cell death only in MBP+ cells, the majority of which are mature oligodendrocytes.

The test system of test [2] is GFAP+ cells (astrocytes). The experiment in a line: Pan purified GFAP+ cultures infected with pLpGFAP(iCP9)MG and exposed to CID. Format: cell-based. Conditions: 4 hours after CID. An excerpt: To test the specificity of the GFAP promoter system, GFAP+ pan purified cultures (cultures of purified astrocytes) were transfected with pLpGFAP(iCP9)MG and exposed to CID.

Test [3] deals with oligodendrocytes (MBP staining cells). Nature of the test: pLpMBP(iCP9)MG injected into corpus callosum, then CID. Format: in vivo, rat. Conditions: after CID.
Test [4] deals with cells infected with virus encoding iCP9. Nature of the test: Cell Death Detection ELISA Plus after virus dilutions and CID. Format: cell-based. As to conditions: various dilutions of iCP9 virus, 4 hours after CID. The method, then:
FIG. 6 is a graph showing cells exposed to various dilutions of virus encoding the iCP9 gene and then CID was added to the culture media. 4 hours later, Apoptosis ELISA was performed. […] Thus apoptosis correlated with iCP9 gene expression. X-axis is virus dilution. Y-axis is ELISA absorption at 405 nm.
(§1) EGFP is also produced from the same viral plasmid and promoter. […] However, cells not transfected with virus (EGFP negative) persisted in culture. […] A Cell Death Detection ELISA Plus (Roche Inc) was also performed to determine the level of apoptosis in culture after cells infected with various dilutions of virus were exposed to CID.
For orientation: In an ELISA, binding on a coated surface is turned into a signal by an enzyme label.

In test [5] the test system is GFAP+ cells (astrocytes). The experiment in a line: pLpGFAP(iCP9)MG injected into corpus callosum, then CID into ipsilateral ventricle. Format: in vivo, rat. Conditions: 24 hours after CID. The method, then:
The system was tested in vivo to ensure that cell specific apoptosis could be induced and the timing of cell ablation controlled as it was in vitro. To this end, virus was injected into the corpus callosum of adult Fischer rats and then three weeks later CID was administered into the ipsilateral ventricle. Rats were sacrificed 24-hours thereafter, brains removed in whole, fixed and cyrosectioned for analysis. […] The TUNEL (TdT-mediated dUTP-X nick end-labeling) system adds a tag on to DNA that has been fragmented during the apoptosis cascade allowing for labeling using standard immunohistochemistry. Thin sections derived from control rats receiving glycerol rather than CID were TUNEL negative. Consecutive thin sections were then stained with anti-GFAP antibody to identify astrocytes. […] This confirmed that in vivo the iCP9 system induces apoptosis only after CID administration and effectively ablates GFAP+ astrocytes.

A further test relates to 293T cells. Nature of the test: CID-induced apoptosis in 293T cells transfected with iCP9 lentivirus or control virus. Format: cell-based. As for the experimental part: as §1
Test [6] concerns infected region of the CNS. The experiment in a line: pΔmbpICP9/mEGFP virus applied to the CNS, then intraperitoneal CID. Format: in vivo, rat. As to conditions: CID via intraperitoneal injection after virus injection. As for the experimental part:
The virus described above, pΔmbpICP9/mEGFP, which contains the inducible caspase 9 sequence was applied to the CNS of adult rats to create an in vivo model of CNS demyelination. Administration of the viral vector allowed effective transfer of genetic information in a variable area of parenchyma based on the rate of administration (convective distribution) and viral titer. […] First, adult Fischer rats were anaesthetized by intraperitoneal injection of ketamine hydrochloride (80 mg/kg) and xylazine ([…]) and placed in a stereotactic frame. A midline scalp incision is made. Access to brain parenchyma was accomplished by placement of a right-sided burr hole through the skull, at various predetermined coordinates depending on the desired location of the lesion. […] The volume of viral vector (e.g., lentivirus) delivered depends upon the infection efficacy as determined herein and the target area size. After injection, the needle is left in place for five minutes and then slowly withdrawn over the next four minutes. The skin was closed with sutures.
For virus administration to the spinal cord an incision was made in the thoracic spine followed by a lamenectomy to expose the spinal cord. A No. 32S-gauge needle was passed into the posterior column at predetermined coordinates.

In test [7] the test system is primary oligodendrocyte cultures. As to conditions: pΔmbpICP9/mEGFP virus; based on published data in other cell types (Straathof et al., 2005); cited from earlier work.
For test [8] the test system is unchanged. The experiment in a line: CID-induced cell death in primary oligodendrocyte cultures transduced with iCP9 virus. Conditions: CID 10 nM; iCP9-expressing primary oligodendrocyte cultures; fluorescent microscope and Methylene Blue viability staining. Format: cell-based, rat. The method, then: To induce timely cell death. Collected virus was used to transduce primary oligodendrocyte cultures that have been established. Cells were cultured and evaluated using fluorescent microscopy for the expression of GFP. The extent of GFP positive cells correlated with the viral infection efficacy. Cell protein isolation was conducted and protein isolates were subjected to Western blot transfer to detect stable expression of the iCP9 protein. The resultant membrane was probed with anti-caspase 9 antibody (R&D Systems Inc. #AF8301). Once the stable expression of iCP9 was confirmed at the protein level with Western blot techniques, the CID was applied to these cells in culture at a 10 nM concentration. […] Cell death was detected by viewing cultures under the fluorescent microscope and by using Methylene Blue (Sigma) viability staining of cells in culture after exposure to the CID. All experiments were run in parallel using the astrocyte-derived U87 cell line as a negative control.
Establish primary oligodendrocyte cultures. […] The status of cellular differentiation was monitored by noting the change in cellular morphology in culture. […]
Once this system and differentiation pattern was confirmed, A2B5^+ primary cell cultures were cultured in pΔmbpICP9/mEGFP viral supernatant for 8 hours. […] Infected cells expressed EGFP and were readily identified using the proper fluorescent filter system. […]

The next test concerns A2B5+ cells. Nature of the test: Mixed cortical cultures infected with pLpPDGFR(iCP9)MG and exposed to CID. Format: cell-based, rat. Conditions: four hours after CID, loss of viable cell morphology. The text has this: To confirm the cell specificity of the PDGFR-α promoter system, rat-derived primary cortical cultures were infected with pLpPDGFR(iCP9)MG virus. […] This provides data supporting the oligoprecursor-specificity of the PDGFR-α promoter system.

Consider `CC[C@H](C(=O)N1CCCC[C@H]1C(=O)O[C@H](CCc1ccc(OC)c(OC)c1)c1cccc(OCC(=O)NCC(CNC(=O)COc2cccc([C@@H](CCc3ccc(OC)c(OC)c3)OC(=O)[C@@H]3CCCCN3C(=O)[C@@H](CC)c3cc(OC)c(OC)c(OC)c3)c2)CN(C)C)c1)c1cc(OC)c(OC)c(OC)c1` [CID], for which, in test [1] (non-target cell types), the “morphology of A2B5/EGFP, GFAP/EGFP and O4/EGFP positive cells” value was “appeared morphologically normal before and after CID exposure”. Also, the “morphology of MBP-positive, EGFP-positive cells after CID” value in [1] (relative to cells not exposed to CID) was “appeared disrupted”. Besides, the “EGFP positive cells after CID” value in the test with GFAP+ cells (astrocytes) [2] is reported as “a decrease in EGFP positive cells”. The “anti-MBP staining at site of infection” value in [3] (glycerol controls normal) is on record as “failed to stain with anti-MBP antibody at the site of infection”. Also, the TUNEL positive cells result in [3] (not in glycerol controls) is reported as “TUNEL positive cells were identified at the site of infection”. For the same molecule, in [4], the “apoptosis level (ELISA absorption at 405 nm)” value was “Apoptosis levels decreased with dilution of virus”. In addition, the “anti-GFAP staining at area of viral infection” value in the test with GFAP+ cells (astrocytes) [5] was “GFAP+ cells were not detected at the area of viral infection”. For the same molecule, the TUNEL staining result in the test with GFAP+ cells (astrocytes) [5] (glycerol controls TUNEL negative) is recorded as “TUNEL positive staining at the site of virus infection”. Moreover, the “apoptosis of EGFP-positive cells after CID” value in the test on 293T cells (293T cells, pLpCMV(iCP9)MG virus) was “rapidly underwent apoptosis”. In the test with 293T cells (cultures transfected with control virus pLpCMVXMG), the “EGFP-positive cells after CID, control virus” value is given as “EGFP-positive cells persisted”. Besides, the “apoptosis of infected CNS region” value in [6] is “resulting in apoptosis of the infected region of the CNS”. Moreover, the “time to cell death of oligodendrocytes after CID” value in [7] was 4 to 6 h. Further, in test [8], the “cell death of infected cells” value is on record as “induced the cellular death of infected cells”. Moreover, the “apoptosis of A2B5+ cells” value in the test with A2B5+ cells is on record as “identified undergoing apoptosis”.
